Experimental data as given in patent publication US20230263822A1, “MODULATION OF FACTOR 11 EXPRESSION” (Ionis Pharmaceuticals, Inc., priority 2008, published 2023).
Strand notation (5' to 3'): a small letter for the sugar, then the base; units joined by * are phosphorothioate-linked, units joined directly phosphodiester-linked; [ ] holds rarer units or linkages, { } end groups; capitals alone tell only the bases. e = 2'-O-(2-methoxyethyl) (MOE); [5mC] = 5-methylcytosine; d = 2'-deoxy (DNA)

Tests used:
Assay type in all cases: cell-based
human Factor 11 mRNA [1] = assay: Dose-dependent inhibition of human Factor 11 in HepG2 cells, electroporation 0.7-20 uM (Example 4); details: for percent inhibition of Factor 11 at 0.7 μM / percent inhibition of Factor 11 at 2.2 μM / percent inhibition of Factor 11 at 6.7 μM / percent inhibition of Factor 11 at 20 μM: relative to untreated control cells
Protocol: (§1) The gapmers were also transfected via electroporation and their dose dependent inhibition of human Factor 11 mRNA was measured. Cells were plated at a density of 20,000 cells per well and transfected via electroporation with 0.7 μM, 2.2 μM, 6.7 μM, and 20 μM concentrations of antisense oligonucleotide, as specified in Table 10. After a treatment period of approximately 16 hours, RNA was isolated from the cells and Factor 11 mRNA levels were measured by quantitative real-time PCR. Human Factor 11 primer probe set RTS 2966 was used to measure mRNA levels. Factor 11 mRNA levels were adjusted according to total RNA content, as measured by RIBOGREEN. Results are presented as percent inhibition of Factor 11, relative to untreated control cells.

human Factor 11 mRNA [2] = assay: Dose-dependent inhibition of human Factor 11 in HepG2 cells, lipofectin 9.375-75 nM (Example 4); details: for percent inhibition of Factor 11 at 9.375 nM / percent inhibition of Factor 11 at 18.75 nM / percent inhibition of Factor 11 at 37.5 nM / percent inhibition of Factor 11 at 75 nM: relative to untreated control cells
Protocol: as §1, with “Cells” for “The gapmers were also transfected via electroporation and their dose dependent inhibition of human Factor 11 mRNA was measured. Cells”, “10,000” for “20,000”, “using lipofectin reagent” for “via electroporation”, “9.375 nM, 18.75 nM, 37.5 nM” for “0.7 μM, 2.2 μM, 6.7 μM,”, “75 nM” for “20 μM”, “9.” for “10.”

human Factor 11 mRNA [3] = assay: Antisense inhibition of human Factor 11 in HepG2 cells by microwalk gapmers, lipofectin, 75 nM (Example 3)
Outline: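 HepG2 cells (10,000/well) were transfected via lipofectin with 75 nM 20-mer MOE gapmers (phosphorothioate, 5-methyl-C) for about 24 h. Factor 11 mRNA was measured by qRT-PCR, normalized to RIBOGREEN total RNA, and given as percent inhibition versus untreated cells.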

[4] = HepG2 cells, lipofectin, gapmers targeted to nucleobases 1062 to 1091 of SEQ ID NO: 1
[5] = HepG2, lipofectin, ~24 h, gapmers targeted to nucleobases 656 to 704 of SEQ ID NO: 1
[6] = HepG2 cells, lipofectin, gapmers targeted to nucleobases 1275 to 1318 of SEQ ID NO: 1
[7] = HepG2 cells, lipofectin, gapmers targeted to nucleobases 1018 to 1042 of SEQ ID NO: 1

Substance	IC50 (human Factor 11 mRNA [1]) [nM]	percent inhibition of Factor 11 at 0.7 μM (human Factor 11 mRNA [1]) [%]	percent inhibition of Factor 11 at 2.2 μM (human Factor 11 mRNA [1]) [%]	percent inhibition of Factor 11 at 6.7 μM (human Factor 11 mRNA [1]) [%]	percent inhibition of Factor 11 at 20 μM (human Factor 11 mRNA [1]) [%]	IC50 (human Factor 11 mRNA [2]) [nM]	percent inhibition of Factor 11 at 9.375 nM (human Factor 11 mRNA [2]) [%]	percent inhibition of Factor 11 at 18.75 nM (human Factor 11 mRNA [2]) [%]	percent inhibition of Factor 11 at 37.5 nM (human Factor 11 mRNA [2]) [%]	percent inhibition of Factor 11 at 75 nM (human Factor 11 mRNA [2]) [%]	% inhibition (human Factor 11 mRNA [3]; [4]) [%]	% inhibition (human Factor 11 mRNA [3]; [5]) [%]	% inhibition (human Factor 11 mRNA [3]; [6]) [%]	% inhibition (human Factor 11 mRNA [3]; [7]) [%]
416993 (antisense e[5mC]*eT*dT*dT*dG*dA*dG*dA*dT*dT*d[5mC]*dT*dT*dT*dG*eG*eG*e[5mC]*e[5mC]*eA) [compound 416993]	2200	22	48	87	92	36	15	37	50	68	91			
416896 (antisense eT*eT*eA*dT*dG*d[5mC]*d[5mC]*d[5mC]*dT*dT*d[5mC]*dA*dT*dG*dT*d[5mC]*dT*eA*eG*eG) [compound 416896]	3200	12	35	81	89	27	22	39	57	81		95		
416923 (antisense eT*eG*e[5mC]*dA*d[5mC]*dA*dG*dT*dT*dT*d[5mC]*dT*dG*dG*d[5mC]*dA*dG*eG*e[5mC]*e[5mC]) [compound 416923]	4000	15	30	60	90	23	36	47	60	67			96	
416924 (antisense eG*eT*eG*d[5mC]*dA*d[5mC]*dA*dG*dT*dT*dT*d[5mC]*dT*dG*dG*d[5mC]*dA*eG*eG*e[5mC]) [compound 416924]	4100	22	40	63	70	36	25	38	56	59			96	
416989 (antisense eG*eA*dG*dA*dT*dT*d[5mC]*dT*dT*dT*dG*dG*dG*d[5mC]*d[5mC]*eA*eT*eT*e[5mC]*e[5mC]) [compound 416989]	1300	32	65	88	94	26	18	41	62	83	88			
416931 (antisense eG*eG*e[5mC]*dA*dT*dT*dG*dG*dT*dG*d[5mC]*dA*d[5mC]*dA*dG*dT*dT*eT*e[5mC]*eT) [compound 416931]	5100	7	24	60	82	22	44	39	57	71			96	
416926 (antisense eT*eG*eG*dT*dG*d[5mC]*dA*d[5mC]*dA*dG*dT*dT*dT*d[5mC]*dT*dG*dG*e[5mC]*eA*eG) [compound 416926]	600	47	71	91	94	22	31	43	63	82			93	
416827 (antisense eT*eA*eT*eG*e[5mC]*d[5mC]*d[5mC]*dT*dT*d[5mC]*dA*dT*dG*dT*d[5mC]*eT*eA*eG*eG*eT) [compound 416827]	1100	37	68	87	92	23	31	42	62	77		93		
417000 (antisense eT*eG*d[5mC]*dA*d[5mC]*dA*dG*dT*dT*dT*d[5mC]*dT*dG*dG*d[5mC]*eA*eG*eG*e[5mC]*e[5mC]) [compound 417000]	600	46	73	76	89	23	35	47	58	70			89	
416878 (antisense eG*eG*eT*d[5mC]*d[5mC]*dA*d[5mC]*dA*dT*dA*dA*dA*dT*dG*dT*d[5mC]*dT*eT*eT*eG) [compound 416878]	4300	1	26	75	85	27	22	34	60	82		95		
416842 (antisense eT*eG*eA*eG*eA*dT*dT*d[5mC]*dT*dT*dT*dG*dG*dG*d[5mC]*e[5mC]*eA*eT*eT*e[5mC]) [compound 416842]	5000	0	10	66	92	31	18	33	62	71	94			
416985 (antisense eG*e[5mC]*dA*dA*d[5mC]*d[5mC]*dG*dG*dG*dA*dT*dG*dA*dT*dG*eA*eG*eT*eG*e[5mC]) [compound 416985]	5800	12	48	45	69	49	17	30	47	57				88
416973 (antisense eT*eT*dA*dT*dG*d[5mC]*d[5mC]*d[5mC]*dT*dT*d[5mC]*dA*dT*dG*dT*e[5mC]*eT*eA*eG*eG) [compound 416973]	2300	20	48	86	93	3	60	75	85	87		92		
416908 (antisense eG*e[5mC]*eA*dA*d[5mC]*d[5mC]*dG*dG*dG*dA*dT*dG*dA*dT*dG*dA*dG*eT*eG*e[5mC]) [compound 416908]	2800	7	58	74	89	16	36	57	67	76				98
